Positions of bridges follow the written chain, without caps; N, C: chain ends. Residues, ends and D or L forms follow the SMILES beside them.
What was measured:
human plasma IgG1 = molecular target: T1, human plasma IgG1 (Homo sapiens, UniProt P01857); assay: Fluorescence anisotropy binding, fluorescein-labeled peptide
T1 construct: the individual human plasma IgG isoforms: IgG1, IgG2, IgG3, or IgG4; purchased Calbiochem; host or cells: human plasma
Method: (§1) All measurements were performed in 384 well microplates with 20 nM fluorescein-labeled peptide and various concentrations of the IgG isoform in a volume of between 10 and 20 μl using a Tecan Polarion fluorescence polarization plate reader. All binding buffers included 0.01% (v/v) Tween 20 to prevent peptide adsorption to the microplate. The binding mixture was equilibrated for 10 minutes in the microplate at 30° C. prior to performing the measurement.
(§2) Peptides were synthesized, fluorescein-labeled and HPLC purified as described above. Binding studies were performed using either a mixture of human plasma IgG isoforms (the Fc protein) or the individual human plasma IgG isoforms: IgG1, IgG2, IgG3, or IgG4.
(§3) Measurements were performed in 384-well microplates with 2 nM fluorescein-labeled peptide and a varied concentration of the IgG isoform target in a volume of 10 μl using a Tecan Polarion fluorescence polarization plate reader. The Fc binding buffer was 50 mM Tris-HCl, 200 mM NaCl, pH 8.0, 0.01% Tween 20. The IgG binding buffer was PBS with 0.01% Tween 20. The binding mixtures were equilibrated for 10 minutes in the microplate at 30° C. prior to performing the measurements.

human plasma IgG2 = molecular target: T2, human plasma IgG2 (Homo sapiens, UniProt P01859); assay: as above
T2 construct: the individual human plasma IgG isoforms: IgG1, IgG2, IgG3, or IgG4; purchased Calbiochem; host or cells: human plasma
T2 sequence (P01859 1-326 isoform P01859-1): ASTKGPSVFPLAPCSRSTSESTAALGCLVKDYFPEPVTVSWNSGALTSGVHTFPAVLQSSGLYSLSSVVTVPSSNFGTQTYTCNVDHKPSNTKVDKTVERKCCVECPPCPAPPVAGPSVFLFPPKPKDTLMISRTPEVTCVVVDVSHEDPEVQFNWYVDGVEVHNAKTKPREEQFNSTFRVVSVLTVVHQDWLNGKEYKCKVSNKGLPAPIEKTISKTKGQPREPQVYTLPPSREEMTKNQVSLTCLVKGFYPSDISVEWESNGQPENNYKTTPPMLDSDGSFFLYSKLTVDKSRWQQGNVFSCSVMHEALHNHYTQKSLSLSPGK
Method: as §1, §2, §3

human IgG = assay: Static (filterplate) binding capacity
Method: These media were used to determine the effect of ligand density on human IgG binding capacity in both static (filterplate) and dynamic (mini-column) modes with commercial immobilized recombinant Protein A (Repligen, IPA400) at a single density as control. Actual ligand densities obtained ranged from 0.17 to 3.2 μmole/ml media as confirmed by quantitative amino acid analysis.
After incubation of the samples, with shaking, at room temperature for one hour, the supernatant liquid from each well, containing unbound IgG, was collected by centrifugation into the cognate well of a collection plate. The assay plate was washed three times with PBST (200 μl/wash) and bound IgG was eluted from the media samples by incubation for 30-60 minutes at room temperature in 100 μl Elution Buffer (100 mM CAPS, pH 11.5). Eluates were collected by centrifugation for analysis. Protein concentrations were determined from A280 measurements and plotted as a function of mg human IgG bound per ml resin vs. mg human IgG applied per ml resin.
The amount of IgG captured (estimated from IgG recovered in the elution step) by the various media is dependent upon both the IgG concentration and the ligand density. […] Under these static conditions, where both ligand and target concentrations are close to KD values, equilibrium binding is established and total capacities cannot be accurately determined. However, over the IgG range of 0 to 25 mg IgG applied per ml resin (0 to 2.5 mg/ml target added to 10 μl of resin), capture of IgG is linear. Beyond this point, up to a level of 200 mg IgG applied per ml resin, saturation becomes more pronounced.

human plasma IgG4 = molecular target: T3, human plasma IgG4 (Homo sapiens, UniProt P01861); assay: Fluorescence anisotropy binding, fluorescein-labeled peptide
T3 construct: the individual human plasma IgG isoforms: IgG1, IgG2, IgG3, or IgG4; purchased Calbiochem; host or cells: human plasma
T3 sequence (P01861 1-327 isoform P01861-1): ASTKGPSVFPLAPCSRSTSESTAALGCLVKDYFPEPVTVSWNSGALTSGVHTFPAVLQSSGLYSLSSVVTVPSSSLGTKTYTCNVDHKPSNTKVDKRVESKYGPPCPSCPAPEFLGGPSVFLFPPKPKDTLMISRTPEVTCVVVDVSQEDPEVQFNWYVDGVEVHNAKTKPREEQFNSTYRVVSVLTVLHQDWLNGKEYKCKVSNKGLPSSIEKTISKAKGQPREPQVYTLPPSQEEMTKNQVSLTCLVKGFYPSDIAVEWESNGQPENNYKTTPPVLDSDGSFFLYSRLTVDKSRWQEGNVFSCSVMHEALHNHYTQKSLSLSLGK
Method: Peptides were synthesized by BACHEM Bioscience, Inc., (King of Prussia, Pa.), fluorescein labeled and purified by HPLC. Binding studies were performed using either a mixture of human plasma IgG isoforms (the Fc target) or the individual human plasma IgG isoforms: IgG1, IgG2, IgG3, or IgG4. All Fc target proteins were obtained from Calbiochem.
as §1, §2, §3

[1] = pH 9.3, 0.01 M sodium bicarbonate
[2] = pH 9.3, .01 M sodium bicarbonate, 0.2 M NaCl

T1 sequence (P01857 1-330 isoform P01857-1): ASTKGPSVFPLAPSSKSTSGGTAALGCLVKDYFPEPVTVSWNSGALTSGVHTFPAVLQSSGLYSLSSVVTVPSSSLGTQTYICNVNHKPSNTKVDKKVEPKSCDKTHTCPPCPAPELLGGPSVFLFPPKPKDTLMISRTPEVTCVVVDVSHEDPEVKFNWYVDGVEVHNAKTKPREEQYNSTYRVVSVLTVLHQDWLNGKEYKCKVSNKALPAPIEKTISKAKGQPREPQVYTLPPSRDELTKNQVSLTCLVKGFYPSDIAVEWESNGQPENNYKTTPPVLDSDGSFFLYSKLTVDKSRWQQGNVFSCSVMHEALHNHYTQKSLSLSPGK

| Compound | Kd (human plasma IgG1; pH 7.4, 0.01 M Tris-HCl) | Kd (human plasma IgG1; pH 7.4, PBS, […] NaCl) | Kd (human plasma IgG1; [1]) | Kd (human plasma IgG1; [2]) | Kd (human plasma IgG2; [1]) | Kd (human plasma IgG4; pH 7.4, 0.01 M Tris-HCl) | Kd (human plasma IgG4; pH 7.4, PBS, […] NaCl) | Kd (human plasma IgG4; [1]) | other results |
| --- | --- | --- | --- | --- | --- | --- | --- | --- | --- |
| CC[C@H](C)[C@@H]1NC(=O)[C@H](CC(C)C)NC(=O)[C@H](CCC(=O)O)NC(=O)CNC(=O)[C@H](Cc2c[nH]c3ccccc23)NC(=O)[C@H]([C@@H](C)O)NC(=O)[C@H]([C@@H](C)O)NC(=O)[C@H](Cc2ccc(O)cc2)NC(=O)[C@H](C(C)C)NC(=O)[C@@H](NC(=O)[C@H](CCSC)NC(=O)[C@H](Cc2c[nH]cn2)NC(=O)[C@H](CC(=O)O)NC(=O)[C@H](CC(=O)O)NC(=O)CNC(C)=O)CSSC[C@@H](C(=O)N[C@@H](CC(=O)O)C(=O)N[C@@H](CC(N)=O)C(=O)N[C@@H](Cc2c[nH]cn2)C(=O)N[C@@H](CCC(=O)O)C(=O)N2CCC[C@H]2C(=O)NCC(=O)N2CCC[C@H]2C(=O)N[C@@H](CCC(=O)O)C(=O)NCC(=O)NCC(=O)NCC(=O)N[C@@H](CCCCN)C(N)=O)NC(=O)[C@H](Cc2c[nH]c3ccccc23)NC1=O [DX249] (Ac-GDDHMCVYTTWGELIWCDNHEPGPEGGGK-NH2; disulfide 6-17) | 0.4 ± 0.06 µM | 2.9 ± 0.9 µM | > 10 µM | > 10 µM | > 10 µM | 1.9 ± 0.4 µM | 1.9 ± 1.2 µM | > 10 µM | Effect of including 15% ethylene glycol on binding to IgG1 (human plasma IgG1; 15% ethylene glycol): no observed effect; Kd (human plasma IgG1; pH 5.7, 0.01 M Tris-acetate, 0 M NaCl): 0.074 ± 0.053 µM; Kd (human plasma IgG1; pH 5.7, 0.01 M Tris-acetate, […] NaCl): 0.84 ± 0.7 µM; Kd (human plasma IgG1; pH 7.4 PBS, […] NaCl, 15% EG): 3.6 ± 2.5 µM; Kd (human plasma IgG2; pH 7.4, PBS, […] NaCl): 1.1 ± 0.3 µM; Capacity (mg IgG/mL resin) Static (human IgG; Ligand Density 0.19 μM/mL): 1.2 mg IgG/mL resin; Capacity (mg IgG/mL resin) Static (human IgG; Ligand Density 0.86 μM/mL): 9.5 mg IgG/mL resin; Capacity (mg IgG/mL resin) Static (human IgG; Ligand Density 1.63 μM/mL): 15.4 mg IgG/mL resin; Capacity (mg IgG/mL resin) Static (human IgG; Ligand Density 3.20 μM/mL): 19.0 mg IgG/mL resin; Static Cap. (human IgG; Table 18, 25 mg human IgG applied per ml resin, average ligand density 1.9 μmole/ml): 24 mg/mL |
| CC(=O)NCC(=O)N[C@@H](CC(=O)O)C(=O)N[C@@H](CC(=O)O)C(=O)N[C@@H](CC(=O)O)C(=O)N[C@@H](Cc1c[nH]cn1)C(=O)N[C@H]1CSSC[C@@H](C(=O)N2CCC[C@H]2C(=O)N[C@@H](Cc2c[nH]cn2)C(=O)NCC(=O)N[C@@H](CCC(=O)O)C(=O)N2CCC[C@H]2C(=O)NCC(=O)N2CCC[C@H]2C(=O)N[C@@H](CCC(=O)O)C(=O)NCC(=O)NCC(=O)NCC(=O)N[C@@H](CCCCN)C(N)=O)NC(=O)[C@H](CCC(=O)O)NC(=O)[C@H](CO)NC(=O)[C@H](CC(N)=O)NC(=O)[C@H](Cc2ccccc2)NC(=O)[C@H](Cc2c[nH]c3ccccc23)NC(=O)[C@H](CCC(=O)O)NC(=O)[C@H](CCCNC(=N)N)NC(=O)[C@H](Cc2ccccc2)NC(=O)[C@H](Cc2c[nH]c3ccccc23)NC(=O)[C@H](Cc2ccc(O)cc2)NC1=O [DX252] (Ac-GDDDHCYWFREWFNSECPHGEPGPEGGGK-NH2; disulfide 6-17 (inferred)) | 2.1 to 3.4 µM | 2.9 ± 1.6 µM | > 10 µM | > 10 µM | > 10 µM | 2.1 to 3.4 µM | > 10 µM | > 10 µM | Kd (human plasma IgG2; pH 5.7, 0.01 M Tris-acetate): > 1 µM; Kd (human plasma IgG2; pH 7.4, 0.01 M Tris-HCl): 2.1 to 3.4 µM; Kd (human plasma IgG4; pH 5.7, 0.01 M Tris-acetate): > 10 µM |
| Prot. A: immobilized recombinant Protein A (RepliGen Corp., product no. IPA-400), positive control [reference compound] | – | – | – | – | – | – | – | – | Capacity (mg IgG/mL resin) Static (human IgG; Ligand Density not determined): 11.1 mg IgG/mL resin |
